The results in this text go back to patent US20240059658A1 (Emory University, priority 2019, published 2024).

Bounds are passed on as bounds.

One assay has as its system EU-1. The experiment in a line: WST cytotoxicity assay, cancer cell EU-1. The format is cell-based, human. Particulars: Homo sapiens, EU-1, EU-1; no other cell line named in the cell; read-out: Cancer cell (EU-1) cytotoxicity IC50. On the procedure:
This study used two ALL cell lines (EU-1 and EU-3) and three NB cell lines (NB-1643, SHEP1 and LA1-55N). All 5 cancer cell lines were established from pediatric ALL or NB patients and were well-characterized for their expression of MDM2 and p53-status, as reported previously. All cell lines were grown in standard culture medium (RPMI 1640 containing 10% FBS, 2 mmol/L L-glutamine, 50 U penicillin and 50 μg/mL streptomycin) at 37° C. in a humidified atmosphere containing 5% CO2.
The cytotoxic effect of MX 69 and MX69 analogs on cancer cells was determined using the water-soluble tetrazolium salt (WST) assay. Briefly, cells cultured in 96-well microtiter plates were treated with different concentrations of AQ-101 for a 20-h period. WST (25 μg/well) was then added and incubation continued for an additional 4 h, after which optical density (OD) was read with a microplate reader (test wavelength of 450 nm; reference wavelength of 620 nm).

For the next assay, the target named is T1, MDM2 (Homo sapiens, UniProt Q00987).
T1 construct: ubiquitination of endogenous MDM2 in EU-1 cells; endogenous in cells; host or cells: EU-1 (ALL) cells
The experiment in a line: MDM2 reduction / expression (Western blot). The format is cell-based. Particulars: words or +/− grades, key not given. On the procedure:
Cells were lysed in a buffer composed of 50 mM Tris, pH 7.6, 150 mM NaCl, 1% Nonidet P-40, 10 mM sodium phosphate, 10 mM NaF, 1 mM sodium orthovanadate, 2 mM phenylmethylsulfonyl fluoride (PMSF), […], 10 μg/mL leupeptin and 10 μg/mL pepstatin. After centrifugation, the clarified cell lysate was separated from the pellet of cell debris, and then incubated with 15 μL Protein G/Protein A-agarose and 1 μg of antibodies, overnight at 4° C. For the Western blot, the resulting cell lysates or immunoprecipitates were resolved by SDS-PAGE. They were then transferred to a nitrocellulose filter and probed with the specific antibodies as listed in the supplemental Materials section. Finally, proteins were visualized with a chemiluminescent detection system.
(In general: A western blot detects proteins with antibodies after separation by electrophoresis.)

T1 sequence (Q00987 whole entry): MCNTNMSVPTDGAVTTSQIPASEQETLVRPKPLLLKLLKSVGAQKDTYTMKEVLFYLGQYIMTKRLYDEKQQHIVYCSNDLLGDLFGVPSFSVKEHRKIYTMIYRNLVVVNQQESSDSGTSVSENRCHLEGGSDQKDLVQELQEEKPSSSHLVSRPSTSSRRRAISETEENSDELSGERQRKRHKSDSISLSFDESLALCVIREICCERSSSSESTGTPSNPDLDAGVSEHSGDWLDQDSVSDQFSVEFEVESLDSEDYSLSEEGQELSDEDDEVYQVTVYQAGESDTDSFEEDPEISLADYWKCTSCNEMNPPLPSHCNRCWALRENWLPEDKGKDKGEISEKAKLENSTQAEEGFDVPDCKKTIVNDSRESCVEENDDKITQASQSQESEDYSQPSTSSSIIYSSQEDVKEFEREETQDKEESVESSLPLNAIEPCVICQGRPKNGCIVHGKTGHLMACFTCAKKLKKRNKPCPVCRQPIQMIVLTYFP

As to `CC(C)C(=O)c1ccc(C2Nc3ccc(S(=O)(=O)Nc4ccc5c(c4)CCO5)cc3[C@H]3OCC[C@@H]23)cc1` (stereo partly drawn) [Compound 69L117], in the assay with EU-1, the IC50 (commonly the concentration needed to halve the response being measured) came out at 0.3 µM. Further, the MDM2 reduction result on MDM2 is listed as “No MDM2”.

For the compound `Cc1ccc(NS(=O)(=O)c2ccc3c(c2)C2OCC[C@H]2C(c2ccc(C(=O)C(C)C)cc2)N3)cc1C` (stereo partly drawn) [Compound 69L96], the IC50 in the assay on EU-1 was determined as 2.08 µM. Besides, the MDM2 reduction result on MDM2 is recorded as “inhibition”. Taken in the same sequence, the figures for `Cc1ccc(NS(=O)(=O)c2ccc3c(c2)[C@H]2OCC[C@H]2C(c2ccc(C(=O)C(C)C)cc2)N3)cc1Cl` (stereo partly drawn) [Compound 69L73, N-(3-chloro-4-methylphenyl)-4-(4-isobutyrylphenyl)-2,3,3a,4,5,9b-hexahydrofuran[3,2-c]quinolone-8-sulfonamide] were 1.56 µM and “No MDM2”.

`O=S(=O)(Nc1ccc(Cl)c(Cl)c1)c1ccc2nc(C3CCCCC3)ccc2c1` [Compound 69L105]: the IC50 in the assay with EU-1 stood at 3.12 µM. For the same compound, the MDM2 reduction entry at MDM2 was “No MDM2”. For `Cc1cccc(NS(=O)(=O)c2ccc3c(c2)C(=O)CC(c2ccc(C(=O)C(C)C)cc2)N3)c1` (stereo not drawn) [Compound 69L99, 2-(4-isobutyrylphenyl)-4-oxo-N-(m-tolyl)-1,2,3,4-tetrahydroquinoline-6-sulfonamide], the IC50 in the assay with EU-1 is 0.23 µM. For the same compound, the MDM2 reduction entry on MDM2 was “inhibition”.

As for `CC(=O)c1ccc([C@@H]2Nc3ccc(S(=O)(=O)Nc4ccc(C)c(C)c4)cc3[C@H]3C=CC[C@H]32)cc1` [Compound 69L48], the IC50 in the assay with EU-1 was 3.8 µM. Besides, the MDM2 reduction result at MDM2 was “inhibition”. `Cc1cc(NS(=O)(=O)c2ccc3c(c2)[C@H]2OCC[C@H]2C(c2ccc(C(=O)C(C)C)cc2)N3)ccc1F` (stereo partly drawn) [Compound 69L79]: in the assay on EU-1, the IC50 was determined as 2.91 µM. Moreover, the MDM2 reduction entry at MDM2 is “No MDM2”. As to `Cc1ccc(NS(=O)(=O)c2ccc3c(c2)[C@H]2C=CC[C@H]2[C@H](c2ccc(C(=O)C(C)C)cc2)N3)cc1C` [Compound 69L80], in the assay on EU-1, the IC50 is 2.66 µM. Also, the MDM2 reduction entry at MDM2 was “No MDM2”. For `CC(C)C(=O)c1ccc(C2CC(=O)c3cc(S(=O)(=O)Nc4ccc(Cl)c(Cl)c4)ccc3N2)cc1` (stereo not drawn) [Compound 69L100, N-(3,4-dichlorophenyl)-2-(4-isobutyrylphenyl)-4-oxo-1,2,3,4-tetrahydroquinoline-6-sulfonamide], the IC50 in the assay on EU-1 turned out to be 1.87 µM. For the same compound, the MDM2 reduction entry on MDM2 is given as “No MDM2”. For `Cc1ccc(NS(=O)(=O)c2ccc3c(c2)C2OCC[C@H]2C(c2ccc(C(=O)c4ccccc4)cc2)N3)cc1C` (stereo in doubt) [Compound 69L54], in that order: 3.22 µM and “inhibition”. With `CC(=O)c1cccc(C2CC(=O)c3cc(S(=O)(=O)Nc4ccc(F)c(C)c4)ccc3N2)c1` (stereo not drawn) [Compound 69L109, 2-(3-acetylphenyl)-N-(4-fluoro-3-methylphenyl)-4-oxo-1,2,3,4-tetrahydroquinoline-6-sulfonamide], the IC50 in the assay on EU-1 was found to be 0.1 µM. In addition, the MDM2 reduction entry at MDM2 was “No MDM2”. On to `Cc1ccc(NS(=O)(=O)c2ccc3c(c2)[C@H]2OCC[C@H]2[C@H](C2CCNCC2)N3)cc1C` [Compound 69L55], for which the IC50 in the assay on EU-1 amounted to 1.64 µM. For the same compound, the MDM2 reduction result at MDM2 is recorded as “No MDM2”. In the case of `CC(=O)c1ccc(NS(=O)(=O)c2ccc3c(c2)[C@H]2OCC[C@H]2C(c2cccc(C(C)=O)c2)N3)cc1` (stereo in doubt) [Compound 69L101, 4-(3-acetylphenyl)-N-(4-acetylphenyl)-2,3,3a,4,5,9b-hexahydrofuro[3,2-c]quinoline-8-sulfonamide], the concentration for half-maximal inhibition (IC50) with EU-1 was 1.8 µM. Besides, the MDM2 reduction entry on MDM2 is listed as “inhibition”.

Regarding `Cc1ccc(NS(=O)(=O)c2ccc3c(c2)[C@H]2OCC[C@H]2C(c2ccc(C(=O)C4CCCCC4)cc2)N3)cc1C` (stereo partly drawn) [Compound 69L70], in the assay on EU-1, the IC50 amounted to 3.09 µM. Moreover, the MDM2 reduction entry on MDM2 is listed as “No MDM2”. Turning to `Cc1cccc(NS(=O)(=O)c2ccc3c(c2)[C@H]2OCC[C@H]2[C@H](c2ccc(C(=O)C(C)C)cc2)N3)c1` [Compound 69L95], the IC50 in the assay with EU-1 turned out to be 1.42 µM. The MDM2 reduction result on MDM2 was “inhibition”. For `Cc1ccc(NS(=O)(=O)c2ccc3c(c2)C(=O)CC(c2ccc(C(=O)C(C)C)cc2)N3)cc1Cl` (stereo not drawn) [Compound 69L107, N-(3-chloro-4-methylphenyl)-2-(4-isobutyrylphenyl)-4-oxo-1,2,3,4-tetrahydroquinoline-6-sulfonamide], in that order: 0.93 µM and “inhibition”. Consider `CC(C)c1ccc(C2Nc3ccc(S(=O)(=O)Nc4cccc(C(C)O)c4)cc3[C@H]3OCC[C@@H]23)cc1` (stereo partly drawn) [Compound 69L116], for which the IC50 with EU-1 is 0.12 µM. Moreover, the MDM2 reduction entry at MDM2 is reported as “No MDM2”. Consider `CC(C)C(=O)c1ccc(C2Nc3ccc(S(=O)(=O)Nc4ccc5c(c4)OCO5)cc3[C@H]3OCC[C@@H]23)cc1` (stereo partly drawn) [Compound 69L142], for which, in the assay with EU-1, the IC50 is above 5 µM. The same measure, in the same setting: then `COC(=O)c1ccc(C2Nc3ccc(S(=O)(=O)Nc4ccc(C)c(C)c4)cc3[C@H]3OCCC[C@@H]23)cc1` (stereo partly drawn) [Compound 69L9], with 4.56 µM; and `COc1cc(NS(=O)(=O)c2ccc3c(c2)C(=O)CC(c2cccc(C(=O)N(C)C)c2)N3)ccc1C` (stereo not drawn) [Compound 69L161], with 0.82 µM.

In the case of `Cc1cc(NS(=O)(=O)c2ccc3c(c2)C2OCC[C@H]2C(c2ccc(C(=O)C(C)C)cc2)N3)ccc1C(F)(F)F` (stereo partly drawn) [Compound 69L89], the IC50 with EU-1 stood at 7.2 µM.

Turning to `CCc1cccc(NS(=O)(=O)c2ccc3c(c2)C(=O)C(F)C(c2cccc(C(=O)C(C)C)c2)N3)c1` (stereo not drawn) [Compound 69L168], the IC50 with EU-1 came to 0.34 µM.

As for `COc1cc(NS(=O)(=O)c2ccc3c(c2)C(=O)CC(c2cccc(C(C)=O)c2)N3)ccc1C` (stereo not drawn) [Compound 69L164], the IC50 with EU-1 was found to be 0.71 µM. As for `CCc1cccc(NS(=O)(=O)c2ccc3c(c2)C(=O)CC(c2cccc(C(=O)N(C)C)c2)N3)c1` (stereo not drawn) [Compound 69L166], the IC50 in the assay with EU-1 was 0.11 µM. As for `CC(=O)c1cccc(NS(=O)(=O)c2ccc3c(c2)[C@H]2OCC[C@H]2C(c2ccc(C(C)C)cc2)N3)c1` (stereo partly drawn) [Compound 69L115], in the assay with EU-1, the IC50 is 0.56 µM. Still for that read-out and setting: then `CC(C)C(=O)c1ccc(C2Nc3ccc(S(=O)(=O)Nc4cccc(C(C)C)c4)cc3[C@H]3OCC[C@@H]23)cc1` (stereo partly drawn) [Compound 69L134], with 6.53 µM; and `CCC(=O)c1cccc(NS(=O)(=O)c2ccc3c(c2)C2OCC[C@H]2C(c2ccc(C(=O)C(C)C)cc2)N3)c1` (stereo partly drawn) [Compound 69L125, 4-(4-isobutyrylphenyl)-N-(3-propionylphenyl)-2,3,3a,4,5,9b-hexahydrofuro[3,2-c]quinoline-8-sulfonimide], with 1.48 µM; and `CC(C)C(=O)c1ccc(C2Nc3ccc(S(=O)(=O)Nc4cccc5c4COC5=O)cc3[C@H]3OCC[C@@H]23)cc1` (stereo partly drawn) [Compound 69L146], with 3.81 µM.

For the compound `CC(=O)c1ccc([C@@H]2Nc3ccc(S(=O)(=O)Nc4ccc(C)c(C)c4)cc3C3NCC[C@H]32)cc1` (stereo partly drawn) [Compound 69L50], the IC50 in the assay on EU-1 came out at 4.1 µM. As for `COC(=O)c1ccc([C@@H]2Nc3cc(Cl)c(S(=O)(=O)Nc4ccc(C)c(C)c4)cc3[C@H]3OCC[C@H]32)cc1` [Compound 69L26], in the assay on EU-1, the IC50 was above 50 µM. For `CCc1cccc(NS(=O)(=O)c2ccc3c(c2)C(=O)CC(c2cccc(C(=O)C(C)C)c2)N3)c1` (stereo not drawn) [Compound 69L150, N-(3-ethylphenyl)-2-(3-isobutyrylphenyl)-4-oxo-1,2,3,4-tetrahydroquinoline-6-sulfonamide], in the assay on EU-1, the IC50 is 0.04 µM.
